Results reported in ChEMBL document CHEMBL3639015, “Bicyclic compound or salt thereof” (2014).

Biological target: Heat shock protein HSP 90-alpha (Homo sapiens, UniProt P07900)
Assay: AlphaScreen Competitive Assay: HSP90-binding activity was determined by an AlphaScreen competitive assay system. The purified HSP90 solution was diluted with a binding buffer (50 mM Tris-HCl (pH 7.5), 150 mM NaCl, 0.1% Triton-X 100, 1 mM DTT, 0.1% BSA) and added to a 384-well plate (#3673, Corning Inc.) containing test substances. After reaction at room temperature for 2 hours, biotinylated geldanamycin was added thereto at a concentration of 40 nM/well and further reacted for 1 hour. Detection mix (20 mM HEPES-KOH (pH 7.5), 0.5% BSA, 0.04 mg/mL Nickel Chelate Acceptor beads, 0.04 mg/mL Streptavidin-coated Donor beads) (#6760619C, PerkinElmer, Inc.) was added to each well in an amount equal to the amount of the reaction solution and reacted at room temperature for 1 hour in the dark. Then, fluorescence intensity was measured using Multilabel Plate Reader EnVision (PerkinElmer, Inc.).

| IC50 | SMILES |
| --- | --- |
| 190 nM | CCNc1cc(-c2nccc3c(-n4cnc(-c5cnn(C)c5)c4)cccc23)ccc1C(N)=O |
| 270 nM | Cn1cc(-c2cn(-c3cccc4c(-c5ccc(C(N)=O)c(NC6CCCCCC6)c5)nccc34)cn2)cn1 |
| 280 nM | CC(C)Cn1cc(-c2cn(-c3cccc4c(-c5ccc(C(N)=O)c(NC6CCC(O)CC6)c5)nccc34)cn2)cn1 (stereo not drawn) |

The remaining lines, values behind:

| SMILES | IC50 |
| --- | --- |
| Cn1cc(-c2cn(-c3cccc4c(-c5ccc(C(N)=O)c(NCC6CC6)c5)cc(C(F)(F)F)nc34)cn2)cn1 | 220 nM |
| NC(=O)c1ccc(-c2nccc3c(-c4cncc(N)c4)cccc23)cc1NC1CCC(O)CC1 (stereo not drawn) | 60 nM |
| NCC(=O)OC1CCC(Nc2cc(-c3nccc4c(-c5cnc6ccccc6c5)cccc34)ccc2C(N)=O)CC1 (stereo not drawn) | 450 nM |
| CC(C)(C)Nc1cc(-c2cc(C(F)(F)F)nc3c(-n4cnc(-c5ccccc5)c4)cccc23)ccc1C(N)=O | 3390 nM |
| CCNc1cc(-c2cc(C(F)(F)F)nc3c(-n4cnc(-c5cnn(C(F)F)c5)c4)cccc23)ccc1C(N)=O | 230 nM |
